{
  "source": "patent US20250000829A1",
  "about": "“PHENYLBUTYRATE COMPOSITIONS FOR TREATING DEVELOPMENTAL AND EPILEPTIC ENCEPHALOPATHY (“DEE”), AND STXBP1 DISORDERS” (priority 2023, published 2025)",
  "key": {"[1]": {"settings": "based on Lexicomp; cited from earlier work"}, "[2]": {"test": "Blood/plasma and CSF levels of phenylbutyrate after glycerol phenylbutyrate dosing", "assay_type": "in vivo, human", "settings": "doses of 12 g/m^2/day, extrapolated from 3 g/m^2/day", "method": "Dosing was sufficient to lead to therapeutic concentrations in the range of 0.25 mM to 1 mM in serum and CSF, based on the following observations. […] CSF levels are approximately ½ to ¼ of serum levels, based on data from non-human primates, thus CSF levels of 0.25 to 0.5 mM were assumed.\nThe secondary endpoints were measuring plasma concentration of phenylbutyrate and active metabolites. Plasma levels of phenylbutyrate peaked at 2 hours after an oral dose. Thus investigators aimed to obtain levels within 90-150 minutes after the oral dose."}, "[3]": {"system": "children with STXBP1-E and SLC6A1-NDD", "test": "Open-label pilot study of glycerol phenylbutyrate: seizure response (seizure diary)", "assay_type": "in vivo, human", "settings": "of 20 participants", "text": "(§1) After institutional review board approval, 20 participants were enrolled in a single treatment group, multiple-dose, open-label, pilot study to evaluate the safety, tolerability, pharmacokinetics (PK) and pharmacodynamics (PD) of glycerol phenylbutyrate in children with STXBP1-E and SLC6A1-NDD.\nParticipants in the study were patients aged 2 months to 17 years with STXBP1-E and seizures or with SLC6A1-NDD. People with SLC6A1 typically experience seizures later in life (typically middle of 1st decade) and so seizures were not an entry criterion for participants with SLC6A1. During enrollment preference was given to patients between 2 months and 3 years old (target of 5 patients) and patients between 4 and 10 years old (target 5 patients). This is because younger patients up to 3 years old may be more sensitive to possible pharmacodynamics and efficacy endpoints and, to a lesser extent, the same may be true for patients 4 to 10 years, as compared to older patients. The study enrolled 11 patients, including 4 children between 2 months and 2 years.\nA daily dose of 11.2 mL/m^2, equivalent to 12.4 g/m^2, was given, enterally (by mouth or, if necessary, by nasogastric or gastrostomy tube). The daily dose was divided into three equally divided doses, with each dose given with food.\nFIG. 3 is a schedule of assessments for measuring the effectiveness of glycerol phenylbutyrate to treat patients with STXBP1-E and SLC6A1-NDD. […]\nResponse to the medication was measured qualitatively and quantitatively using the following measures. Quantitative and qualitative measures included the change in the number of and percent change in the seizures per week, as recorded in the seizure diary, comparing weeks 1-4 with weeks 5-10; change and percent change in number of seizures per hour, as recorded by video EEG, comparing visit 5 (day before medication) to visit 6 (first day of medication), and comparing visit 5 to visit 14 (40 days after the first day of medication); and changes in […] in EEG data, comparing visit 5 to visit 6 and visit 5 to visit 14. Additional measures comparing visit 5 and visit 14 included quality of life assessment, as quantified by the change in PEDSQL epilepsy module score, and by the trajectory and overall change in the PELHS QOL-2 score; qualitative analysis of the participant's development and behavior; change in developmental assessment scores; ataxia as measured by changes in SARA scale score; and sleep as measured by CSHQ score. Medication dosing adherence was also assessed, quantified as the percentage of days in which the participant received the full prescribed dose, and considering obstacles to adherence qualitatively as reported by caregivers. […]"}, "[4]": {"system": "children with STXBP1-E and SLC6A1-NDD", "test": "Open-label pilot study: quality of life assessed with the PEDSQL epilepsy module", "assay_type": "in vivo, human", "settings": "assessed at 10 weeks of drug exposure", "method": "as §1\nQuality of life was assessed using the Pediatric Quality of Life Inventory (PEDSQL) epilepsy module, which is a validated scale about quality of life for children with epilepsy, and the Pediatric Epilepsy Learning Healthcare System Quality of Life survey (PELHS QOL 2), which is a set of two questions that ask how seizures and medication side effects alter usual routines. The PEDSQL is provided at eprovide.mapi-trust.org/instruments/pediatric-quality-of-life-inventory-epilepsy-module.\n(§2) Visit 5 was a pre-treatment baseline visit conducted at least 28 days after visit 1 and the day before treatment initiation. This visit was conducted in person while the patient was admitted to hospital. […]\n(§3) Visit 14 was a treatment evaluation visit and was conducted in person at least 40 days after the first day of medication administration. […] The participant was evaluated by a developmental pediatrician, neuropsychologist, or psychologist, in the same fashion as during visit 5.\n(§4) Response to the medication was measured qualitatively and quantitatively using the following measures. […]"}, "[5]": {"settings": "cited from earlier work"}, "[6]": {"settings": "non-human primates; via the monocarboxylate transporter 1 mechanism; cited from earlier work"}, "[7]": {"system": "child with SLC6A1", "test": "Open-label pilot study: EEG before and after treatment", "assay_type": "in vivo, human", "settings": "10 second EEG, same child with SLC6A1, six weeks after treatment vs prior to treatment (brief absence seizure)", "method": "Investigators noted EEG changes, including standard clinical interpretation of the EEG and video (particularly for abnormal movements).\nVisit 5 was a pre-treatment baseline visit conducted at least 28 days after visit 1 and the day before treatment initiation. This visit was conducted in person while the patient was admitted to hospital. During this visit, the investigator reviewed the participant's seizure diary and medical history. The investigator administered several assessments, including the PEDSQL Epilepsy Module, the PELHS QOL 2, the SARA Scale, the CARS, the CSHQ, and the ORCA. The participant was given a physical exam and had urine and blood samples collected for a series of laboratory tests. Laboratory tests included routine laboratory tests and specialized laboratory tests. Routine laboratory tests that were conducted included a complete blood count (CBC), chemistry panels, liver function tests (LFTs), urinalysis, amylase test, lipase test, anti-seizure medication (ASM) levels test, and electrocardiogram (EKG). […]\nVisit 14 was a treatment evaluation visit and was conducted in person at least 40 days after the first day of medication administration. […] The participant was evaluated by a developmental pediatrician, neuropsychologist, or psychologist, in the same fashion as during visit 5. […]"}, "[8]": {"settings": "mice; via the monocarboxylate transporter 1 mechanism; cited from earlier work"}, "[9]": {"system": "children with STXBP1-E and SLC6A1-NDD", "test": "Open-label pilot study: sleep assessed with the Child's Sleep Habits Questionnaire (CSHQ)", "assay_type": "in vivo, human", "settings": "assessed at 10 weeks of drug exposure", "method": "as §1\nas §2, with “hospital. During this visit, the investigator reviewed the participant's seizure diary and medical history.” for “hospital.”\nas §3\nResponse to the medication was measured qualitatively and quantitatively using the following measures. […] Additional measures comparing visit 5 and visit 14 included quality of life assessment, as quantified by the change in PEDSQL epilepsy module score, and by the trajectory and overall change in the PELHS QOL-2 score; qualitative analysis of the participant's development and behavior; change in developmental assessment scores; ataxia as measured by changes in SARA scale score; and sleep as measured by CSHQ score. […]"}, "[10]": {"system": "children with STXBP1-E and SLC6A1-NDD", "test": "Open-label pilot study: communication assessed with the ORCA", "assay_type": "in vivo, human", "settings": "assessed at 10 weeks of drug exposure", "method": "as §1\nDevelopment was assessed using several pre-specified measures (Vineland, ORCA) as well as an assessment by a pediatric development expert (i.e. a physician, neuropsychologist, or psychologist with expertise in administering and interpreting developmental assessments). During the assessment, several additional validated measures may have been used. These may have included (but were not limited to) the Bayley Scales of Infant and Toddler Development, the Childhood Autism Rating Scale, the Child Behavior Checklist, the Behavior Rating Inventory of Executive Function, the Infant Toddler Social Emotional Assessment, the DAYC (Developmental Assessment of Young Children), or other similar validated scales. […]\nas §3, §4"}, "[11]": {"settings": "daily dose 11.2 mL/m^2 enterally"}},
  "note": "Where “and” joins values, the source holds several entries; their conditions need not be identical. Equal entries are not always repeated. Where two headings read alike, the source gives them in different places.",
  "data": [
    {"compound": "O=C(CCCc1ccccc1)OCC(COC(=O)CCCc1ccccc1)OC(=O)CCCc1ccccc1", "note": "[glycerol phenylbutyrate]", "values": [
      {"measurement": "Side effect frequency: abdominal pain", "setting": "[1]", "value": 7, "unit": "%"},
      {"measurement": "Side effect frequency: decreased appetite", "setting": "[1]", "value": 7, "unit": "%"},
      {"measurement": "Side effect frequency: diarrhea", "setting": "[1]", "value": 16, "unit": "%"},
      {"measurement": "Side effect frequency: dyspepsia", "setting": "[1]", "value": 5, "unit": "%"},
      {"measurement": "Side effect frequency: fatigue", "setting": "[1]", "value": 7, "unit": "%"},
      {"measurement": "Side effect frequency: flatulence", "setting": "[1]", "value": 14, "unit": "%"},
      {"measurement": "Side effect frequency: headache", "setting": "[1]", "value": 14, "unit": "%"},
      {"measurement": "Side effect frequency: nausea", "setting": "[1]", "value": 2, "unit": "%"},
      {"measurement": "Side effect frequency: vomiting", "setting": "[1]", "value": 7, "unit": "%"},
      {"measurement": "Concentration in serum", "setting": "[2]", "value": "~1000", "unit": "µM"},
      {"measurement": "Responders (50% or more reduction in seizures clinically associated with the use of glycerol phenylbutyrate)", "setting": "[3]; daily dose 11.2 mL/m^2 (12.4 g/m^2) enterally in three divided doses", "value": 11, "unit": "participants"},
      {"measurement": "Indeterminant response (improvement, but less than 50% reduction in seizures or not clinically associated with use)", "setting": "[3]; [11]", "value": 3, "unit": "participants"},
      {"measurement": "Non-responders", "setting": "[3]; [11]", "value": 2, "unit": "participants"},
      {"measurement": "Participants that had no seizures", "setting": "[3]; [11]", "value": 4, "unit": "participants"},
      {"measurement": "Participants with improved quality of life, as assessed with the PEDSQL", "setting": "[4]", "value": "4 of 11"},
      {"measurement": "Blood levels of phenylbutyric acid", "setting": "[5]; doses of 3 g/m^2/day of glycerol phenylbutyrate, adults", "value": "38 μg/mL and 0.23 mM"},
      {"measurement": "Crossing of the blood-brain barrier", "setting": "[6]", "value": "crosses the blood-brain barrier"},
      {"measurement": "Seizure activity in EEG after treatment", "setting": "[7]", "value": "did not show seizure activity"},
      {"measurement": "Crossing of the blood-brain barrier", "setting": "[8]", "value": "crosses the blood-brain barrier"},
      {"measurement": "Participants with improved sleep, as assessed with the CSHQ", "setting": "[9]", "value": "5 of 12"},
      {"measurement": "Participants with improved communication, as assessed with the ORCA", "setting": "[10]", "value": "8 of 11"}
    ]},
    {"compound": "phenylbutyric acid [phenylbutyrate]", "values": [
      {"measurement": "Time of peak plasma levels of phenylbutyrate", "setting": "[5]; after an oral dose", "value": 2, "unit": "h"}
    ]}
  ]
}
